Data on 67 compounds can be found in patent publication US7652047B2, “Phenylamino isothiazole carboxamidines as MEK inhibitors” (Ardea Biosciences, Inc., priority 2005, dated 2010).

This assay has as its target T1, MEK1^CA (human GST-MEK1, constitutively active, Ser218Asp and Ser222Asp) (Homo sapiens, UniProt Q02750, S218D/S222D).
T1 construct: GST; made in house; host or cells: Escherichia coli
The assay is described as follows: MEK1 enzymatic activity assay (MEK1^CA / ERK2 / MBP, [γ-33P]ATP incorporation). In kind it is biochemical. The note with it: Table 1, compounds of formula I; read-out: Avg IC50. From the text: Materials and preparation of reagents: Human GST-MEK1 and the constitutively active allele GST-MEK1^CA (harboring the mutations Ser218Asp and Ser222Asp) were subcloned into the […] expression vector pGEM4Z (Promega, Madison, Wis.) from the wild type human MEK1 cDNA. GST-MEK1^CA was expressed in Escherichia coli and partially purified using Glutathione Sepharose 4B affinity resin (Amersham Pharmacia Biotech, Piscataway, N.J.). The ERK2 allele was subcloned from MAPK2/Erk2 cDNA (wild type) in pUSEamp (Upstate Biotechnology, Inc., Waltham, Mass.) into the vector pET21a (Novagen, Madison, Wis.) resulting in an N-terminal histidine-tagged mouse ERK2 allele. […] Myelin basic protein (MBP) was purchased from Gibco BRL (Rockville, Md.). EasyTides adenosine 5′-triphosphate (ATP) ([γ-^33P]) (NEN Perkin Elmer, Wellesley, Mass.) was the source of radiolabel for all kinase reactions. Activated Raf-1 (truncated) and activated MAPKinase 2/ERK2 were purchased from Upstate, Inc. (Lake Placid, N.Y.). 4-20% Criterion Precast gels were purchased from Bio-Rad (Hercules, Calif.).
A typical 25-microliter assay contained 0.002 nanomoles MEK1^CA, 0.02 nanomoles ERK2, 0.25 nanomoles MBP, 0.25 nanomoles unlabeled ATP, and 0.1 μCi [γ^33P] ATP. The screening assay essentially comprised four additions. Five μl of diluted compound were dispensed to 96-well assay plates. Ten μl of 2.5× enzyme cocktail (MEK1^CA and ERK2 only) were then added to each well followed by a pre-incubation for 30 minutes at ambient temperature. […] Finally, 100 μl of 10% trichloroacetic acid (TCA) were added and incubated for 30 minutes at room temperature to halt the reaction and precipitate radiolabeled protein products. Reaction products were harvested on glass fiber 96 well filter plates prewetted with water and 1% pyrophosphate. The filter plate was then washed 5 times with water. Water was displaced by absolute ethanol and the plate was allowed to air dry for 30 minutes at room temperature. A back seal was applied manually and 40 μl of scintillation cocktail were dispensed to each well. A top seal was applied and the plate was counted in the TopCount for two seconds per well.

pIC50: −log10 of the molar value. Bounds are passed on as bounds.

T1 sequence (Q02750 whole entry S218D/S222D): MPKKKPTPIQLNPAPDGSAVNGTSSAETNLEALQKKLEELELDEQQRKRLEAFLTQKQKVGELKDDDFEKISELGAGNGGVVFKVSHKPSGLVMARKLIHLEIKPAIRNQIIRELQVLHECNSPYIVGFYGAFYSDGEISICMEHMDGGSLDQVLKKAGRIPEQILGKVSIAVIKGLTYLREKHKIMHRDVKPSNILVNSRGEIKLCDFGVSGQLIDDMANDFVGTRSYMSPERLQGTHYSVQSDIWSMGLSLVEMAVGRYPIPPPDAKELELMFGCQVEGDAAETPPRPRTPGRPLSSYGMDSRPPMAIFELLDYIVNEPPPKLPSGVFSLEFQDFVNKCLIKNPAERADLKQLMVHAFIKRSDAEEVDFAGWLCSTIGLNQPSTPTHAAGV

Turning to `CCCCCNc1snc(O)c1C(=N)NCC1CCCCC1` [compound 121], the pIC50 is below 6.30.

Turning to `N=C(NCC1CCCCC1)c1c(O)nsc1Nc1ccc(N2CCCCC2)cc1` [compound 123], the pIC50 was below 6.30.

On to `Cc1ccc(Oc2ccc(Nc3snc(O)c3C(=N)NCC3CCCCC3)cc2)cn1` [compound 124], for which the pIC50 was 6.30 to 7.00.

Regarding `N=C(NCCCO)c1c(O)nsc1NCC1CCCCC1` [compound 125], the pIC50 is below 6.30.

`N=C(NCC1CCCCC1)c1c(O)nsc1Nc1ccc(Cl)nc1` [compound 126]: the pIC50 was below 6.30.

`N=C(NCC1CCCCC1)c1c(O)nsc1Nc1ccc(Cc2ccccc2)cc1` [compound 127]: the pIC50 is 6.30 to 7.00.

As to `N=C(NCC1CCCCC1)c1c(O)nsc1Nc1ccc(/N=N/c2ccccc2)cc1` [compound 128], the pIC50 is 6.30 to 7.00.

As to `N=C(NCC(O)CO)c1c(O)nsc1Nc1ccc(Cc2ccccc2)cc1` (stereo not shown) [compound 129], the pIC50 is 6.30 to 7.00.

On to `N=C(NO)c1c(O)nsc1Nc1ccc(Oc2ccccc2)cc1` [compound 130], for which the pIC50 is 7.00 to 9.00.

Take `COc1cc2c(cc1Nc1snc(O)c1C(=N)NCC1CCCCC1)oc1ccccc12` [compound 131]: the pIC50 is below 6.30.

As to `N=C(NCC1CCCCC1)c1c(O)nsc1Nc1ccc(N2CCOCC2)nc1` [compound 132], the negative logarithm of the IC50 (pIC50) is below 6.30.

`N=C(NCC1CCCCC1)c1c(O)nsc1Nc1ccc(/C=C/c2ccccc2)cc1` [compound 133]: the pIC50 was below 6.30.

With `Cc1ccc(Oc2ccc(Nc3snc(O)c3C(=N)NCC3CCCCC3)cn2)cn1` [compound 134], the pIC50 is below 6.30.

On to `Oc1nsc(Nc2ccc(Oc3ccccc3)cc2)c1-c1nnn[nH]1` [compound 136], for which the pIC50 was below 6.30.

Turning to `N=C(NCC1CCCCC1)c1c(O)nsc1Nc1ccc(Oc2cncnc2)cc1` [compound 137], the pIC50 is below 6.30.

As for `N=C(c1c(O)nsc1Nc1ccc(Oc2ccccc2)cc1)N(O)Cc1ccccc1` [compound 138], the pIC50 was 6.30 to 7.00.

For `CN(O)C(=N)c1c(O)nsc1Nc1ccc(Oc2ccccc2)cc1` [compound 139], the pIC50 is 6.30 to 7.00.

With `N=C(NCC1CCCCC1)c1c(O)nsc1Nc1ccc(Oc2ccc(Cl)cc2)cc1` [compound 140], the pIC50 is 7.00 to 9.00.

Take `COc1ccc(Oc2ccc(Nc3snc(O)c3C(=N)NCC3CCCCC3)cc2)cc1` [compound 141]: the pIC50 is 6.30 to 7.00.

Regarding `N=C(NCC1CCCCC1)c1c(O)nsc1Nc1ccc(Oc2ccc(F)cc2)cc1` [compound 142], the pIC50 is 7.00 to 9.00.

For the compound `CC(C)(CO)CNC(=N)c1c(O)nsc1Nc1ccc(Oc2ccccc2)cc1` [compound 143], the pIC50 was 7.00 to 9.00.

As to `CC(C)N(O)C(=N)c1c(O)nsc1Nc1ccc(Oc2ccccc2)cc1` [compound 144], the pIC50 is 7.00 to 9.00.

For the compound `CC(=O)Nc1ccc(Oc2ccc(Nc3snc(O)c3C(=N)NCC(O)CO)cc2)cc1` (stereo not shown) [compound 145], the pIC50 was below 6.30.

On to `N=C(NCCO)c1c(O)nsc1Nc1ccc(Cc2ccccc2)cc1` [compound 146], for which the pIC50 is below 6.30.

In the case of `CN(C)CCNC(=N)c1c(O)nsc1Nc1ccc(Oc2ccccc2)cc1` [compound 147], the pIC50 is 6.30 to 7.00.

For the compound `CN1CCCC1CCNC(=N)c1c(O)nsc1Nc1ccc(Oc2ccccc2)cc1` (stereo not shown) [compound 148], the pIC50 is below 6.30.

With `Oc1nsc(Nc2ccc(Oc3ccccc3)cc2)c1-c1noc(-c2ccccc2)n1` [compound 149], the pIC50 is below 6.30.

As for `CC(=O)NC(=N)c1c(O)nsc1Nc1ccc(Oc2ccccc2)cc1` [compound 150], the pIC50 was below 6.30.

Take `Cc1ccc(S(=O)(=O)NC(=N)c2c(O)nsc2Nc2ccc(Oc3ccccc3)cc2)cc1` [compound 151]: the pIC50 is below 6.30.

Consider `N=C(N[C@H]1CC[C@H](O)CC1)c1c(O)nsc1Nc1ccc(Oc2ccccc2)cc1` [compound 152], for which the pIC50 was 7.00 to 9.00.

As to `CCC(CO)NC(=N)c1c(O)nsc1Nc1ccc(Oc2ccccc2)cc1` (stereo not shown) [compound 153], the pIC50 was 6.30 to 7.00.

On to `CC(CO)/N=C(\N)c1c(O)nsc1Nc1ccc(Oc2ccccc2)cc1` (stereo not shown) [compound 154], for which the pIC50 was 7.00 to 9.00.

In the case of `N=C(N[C@@H]1CCC[C@H]1O)c1c(O)nsc1Nc1ccc(Oc2ccccc2)cc1` [compound 155], the pIC50 was 6.30 to 7.00.

Take `CC(O)CNC(=N)c1c(O)nsc1Nc1ccc(Oc2ccccc2)cc1` (stereo not shown) [compound 156]: the pIC50 was 6.30 to 7.00.

Regarding `CCCCC(CO)NC(=N)c1c(O)nsc1Nc1ccc(Oc2ccccc2)cc1` (stereo not shown) [compound 157], the pIC50 is 6.30 to 7.00.

As for `N=C(NCCCCO)c1c(O)nsc1Nc1ccc(Oc2ccc(Cl)cc2)cc1` [compound 158], the pIC50 is 6.30 to 7.00.

Consider `C[C@H](NC(=N)c1c(O)nsc1Nc1ccc(Oc2ccccc2)cc1)[C@@H](O)c1ccccc1` [compound 159], for which the pIC50 is 7.00 to 9.00.

Take `CCC[C@H]1CC[C@H](c2ccc(Nc3snc(O)c3C(=N)NC(C)C)cc2)CC1` [compound 160]: the pIC50 was 6.30 to 7.00.

As for `CCC[C@H]1CC[C@H](c2ccc(Nc3snc(O)c3C(=N)NCCO)cc2)CC1` [compound 161], the pIC50 was below 6.30.

With `N#CNC(=N)c1c(O)nsc1Nc1ccc(Oc2ccccc2)cc1` [compound 162], the pIC50 is below 6.30.

On to `CC(C)C[C@H](CO)NC(=N)c1c(O)nsc1Nc1ccc(Oc2ccccc2)cc1` [compound 163], for which the pIC50 was 6.30 to 7.00.

Turning to `N=C(NC(CO)CO)c1c(O)nsc1Nc1ccc(Oc2ccccc2)cc1` [compound 164], the pIC50 was 7.00 to 9.00.

In the case of `CCC[C@H]1CC[C@H](c2ccc(Nc3snc(O)c3C(=N)NCC(C)(C)CO)cc2)CC1` [compound 165], the pIC50 was 6.30 to 7.00.

Turning to `N=C(NCC(O)c1cccc(O)c1)c1c(O)nsc1Nc1ccc(Oc2ccccc2)cc1` (stereo not shown) [compound 166], the pIC50 was 7.00 to 9.00.

Consider `N=C(N[C@@H]1CCCC[C@H]1O)c1c(O)nsc1Nc1ccc(Oc2ccccc2)cc1` [compound 167], for which the pIC50 is 6.30 to 7.00.

For the compound `N=C(N[C@H](CO)CC1CCCCC1)c1c(O)nsc1Nc1ccc(Oc2ccccc2)cc1` [compound 168], the pIC50 was below 6.30.

On to `CC(C)NC(=N)c1c(O)nsc1Nc1ccc(Oc2cncnc2)cc1` [compound 169], for which the pIC50 is 6.30 to 7.00.

With `CC(C)NC(=N)c1c(O)nsc1Nc1ccc(C2CCCCC2)cc1` [compound 170], the pIC50 is 6.30 to 7.00.

On to `N=C(NCCO)c1c(O)nsc1Nc1ccc(Oc2cncnc2)cc1` [compound 171], for which the pIC50 is below 6.30.

Regarding `N=C(NCCO)c1c(O)nsc1Nc1ccc(C2CCCCC2)cc1` [compound 172], the pIC50 was below 6.30.

Consider `CC(C)(C)NC(=N)c1c(O)nsc1Nc1ccc(Oc2ccccc2)cc1` [compound 173], for which the pIC50 was 7.00 to 9.00.

Turning to `C[C@@H](CO)NC(=N)c1c(O)nsc1Nc1ccc(Oc2ccccc2)cc1` [compound 174], the pIC50 is 7.00 to 9.00.

Consider `C[C@H](CO)NC(=N)c1c(O)nsc1Nc1ccc(Oc2ccccc2)cc1` [compound 175], for which the pIC50 is 7.00 to 9.00.

`CC[C@@H](CO)NC(=N)c1c(O)nsc1Nc1ccc(Oc2ccccc2)cc1` [compound 176]: the pIC50 was 6.30 to 7.00.

In the case of `CC[C@H](CO)NC(=N)c1c(O)nsc1Nc1ccc(Oc2ccccc2)cc1` [compound 177], the pIC50 is 6.30 to 7.00.

For `COCC(C)NC(=N)c1c(O)nsc1Nc1ccc(Oc2ccccc2)cc1` (stereo not shown) [compound 178], the pIC50 was 7.00 to 9.00.

Regarding `CC(C)C(CO)NC(=N)c1c(O)nsc1Nc1ccc(Oc2ccccc2)cc1` (stereo not shown) [compound 179], the pIC50 is 6.30 to 7.00.

Consider `CC(C)(C)C(CO)NC(=N)c1c(O)nsc1Nc1ccc(Oc2ccccc2)cc1` (stereo not shown) [compound 180], for which the pIC50 is 6.30 to 7.00.

On to `COc1ccc(Nc2snc(O)c2-c2nnn[nH]2)c(OC)n1` [compound 181], for which the pIC50 is below 6.30.

`N=C(NCc1ccc(C(F)(F)F)nc1)c1c(O)nsc1Nc1cccc(Oc2ccccc2)c1` [compound 182]: the pIC50 is 6.30 to 7.00.

On to `CC(C)NC(=N)c1c(O)nsc1Nc1ccc(Oc2ccc(Cl)cc2)cc1` [compound 183], for which the pIC50 was 7.00 to 9.00.

Consider `COc1ccc(Nc2snc(O)c2C(=N)NCc2ccc(C(F)(F)F)nc2)c(OC)n1` [compound 184], for which the pIC50 is below 6.30.

Consider `CC(=O)Oc1nsc(Nc2ccc(Oc3ccccc3)cc2)c1C(=N)NC(C)C` [compound 185], for which the pIC50 was 6.30 to 7.00.

On to `N=C(NCC(O)CO)c1c(O)nsc1Nc1ccc(C2CCCCC2)cc1` (stereo not shown) [compound 186], for which the pIC50 was below 6.30.

On to `CCCCCCCCCCOCC(O)CNC(=N)c1c(O)nsc1Nc1ccc(Oc2ccccc2)cc1` (stereo not shown) [compound 187], for which the pIC50 is below 6.30.

With `CC(C)(CO)NC(=N)c1c(O)nsc1Nc1ccc(Oc2ccccc2)cc1` [compound 188], the pIC50 is 6.30 to 7.00.

As for `N=C(NCC1(O)CCCCC1)c1c(O)nsc1Nc1ccc(Oc2ccccc2)cc1` [compound 189], the pIC50 is 6.30 to 7.00.
